In patent US9284296B2, “Bipyridine sulfonamide derivatives for the treatment of neurodegenerative diseases or conditions” (AUBERGINE PHARMACEUTICALS LLC, priority 2010, dated 2016):

Assays:
Assay type in all cases: cell-based
[1] = tested on: SH-SY5Y human neuroblastoma cells; assay: Protection against hydrogen peroxide-induced cell death; details: Homo sapiens; SH-SY5Y cells, 1 h preincubation, 100 μM hydrogen peroxide, 24 h, LDH readout of live cells
Method: The aim of this assay is to determine the neuroprotective effect of the compounds when human neuroblastoma cells are exposed to the oxidative stress induced by hydrogen peroxide, which leads to cell death. Therefore the protective effect of the compounds was measured by monitoring cell survival using a suitable commercial kit (Cytotoxicity Detection Kit, Roche Diagnostics GmbH, Mannheim, Germany) based on the quantification of the lactate dehydrogenase activity obtained from lysates of the remaining live cells with a colorimetric assay yielding absorbance at 492 nm as the final readout.
SH-SY5Y human neuroblastoma cells were seeded into 96-well culture plate at a density of 10,000 cells/well. Cells were preincubated for one hour with different concentrations of the compound at a 1% (v/v) DMSO concentration in an equivolumetric mixture of Minimum Essential Medium (MEM) and Nutrient Mixture HAM F12 supplemented with 10% foetal bovine serum, 100 U/ml penicillin, 100 μg/ml streptomycin, 1 mM each of non-essential aminoacids (commercial preparation from GIBCO, Paisley, UK) and 2 mM L-glutamine. Hydrogen peroxide was then added to reach 100 μM and the incubation was extended for 24 h. Then the medium was removed and live cells, which remained attached to the bottom of the plate, were lysed by incubating them during 5 min with 50 μl of 1% (v/v) Triton X-100 in Krebs-Hepes buffer (10 mM Hepes pH7.3 with 145 mM NaCl, 5.5 mM KCl, 1 mM MgCl2, 2 mM CaCl2 and 1 mM glucose). This lysate was used to measure LDH activity using the commercial kit according to the manufacturer's instructions. In the culture plate several wells were included as a control of cell death, in these wells the cells were preincubated with 1% (v/v) DMSO before hydrogen peroxide addition. Likewise, several wells were included as control for full cell survival, in these wells the addition of H2O2 was omitted. The absorbance of each tested sample was normalized to that of the control wells, so that for every compound concentration the percentage of protective effect was calculated with the following equation:
[formula] where “S” is the absorbance of the sample being considered, “E” is the average absorbance of wells used as control of full cell survival and “B” is the average absorbance of wells used as control of cell death. The values obtained at every compound concentration were finally used to calculate the EC50 (i.e., the concentration causing 50% of protective effect) of the tested compound. For that purpose the data were fitted to a classical 4-parameters isotherm equation using the nonlinear regression function of GraphPad™ Prism 5.0 (GraphPad Software Inc.), such equation is described below:
[formula] where “L” is the lower asymptote of the theoretical sigmoidal curve, “H” is the higher asymptote, “C” is the concentration of compound and “n” is the Hill coefficient.

[2] = tested on: secretion of soluble amyloid precursor protein-α (sAPPα); assay: Stimulation of sAPPα secretion (CHO7w cells stably transfected with human APP, AlphaLISA); details: for EC50 / Emax: Homo sapiens, CHO-7W, CHO7w cells, 24 h incubation, range stated for the listed compounds together; for Emax: read-out: maximum effect (sAPPα secretion)
Method: The effect of the compounds on the stimulation of the secretion of soluble amyloid precursor protein-α (sAPPα) was determined by measuring the levels of this protein in cell supernatants after incubating the cells with several concentrations of the tested compound. A CHO7w cell line, stably transfected with human APP, was used. Cells were dispensed in 96-well culture plates (5,000 cells/well) and grown in DMEM supplemented with 2% (v/v) foetal bovine serum, 100 U/ml penicillin, 100 μg/ml streptomycin, 2 mM L-glutamine and 200 μg/ml G418 in the presence of several concentrations of the tested compound which had been previously dissolved in DMSO (1% (v/v) DMSO final concentration). After 24 h of incubation 5 μl of the culture supernatants were withdrawn and their sAPPα. concentration was measured with a commercial kit (AlphaLISA® Amyloid Precursor Protein-α Secreted Research kit, PerkinElmer, Waltham, Mass., USA) following manufacturer's instructions. In the culture plate several wells were included as a control for background sAPPα secretion, in these wells the cells were incubated with 1% (v/v) DMSO. The results obtained for each tested sample were normalized by using the following equation:
[formula] where “S” is the sAPPα concentration of the sample being considered, “B” is the average sAPPα concentration of wells used for background secretion and “M” is the sAPPα concentration of wells yielding the highest value. These normalized values obtained at every compound concentration were finally used to calculate the EC50 of the tested compound fitting them to a 4-parameters isotherm equation as already described. The average EC50s ranges are reported in Table 4 together with the maximum observed effect (and the concentration at which this effect was reached), this latter value was calculated for each compound according to the following equation:
[formula] with “M” and “B” as defined above.

[3] = tested on: secretion of amyloid peptide β1-40 (Aβ1-40); assay: Inhibition of β-amyloid secretion (CHO7w cells stably transfected with human APP, ELISA); details: CHO-7W, 24 h incubation, range stated for the listed compounds together
Method: The inhibition caused by the compounds on the secretion of amyloid peptide β1-40 (Aβ1-40) was determined by measuring the levels of this peptide in cell supernatants after incubating the cells with several concentrations of the tested compound. A CHO7w cell line, stably transfected with human amyloid precursor protein (APP), was used. Cells were dispensed in 96-well culture plates (5,000 cells/well) and grown in DMEM supplemented with 2% (v/v) foetal bovine serum, 100 U/ml penicillin, 100 μg/ml streptomycin, 2 mM L-glutamine and 200 μg/ml G418 in the presence of several concentrations of the tested compound which had been previously dissolved in DMSO (1% (v/v) DMSO final concentration). After a 24 h incubation the amount of Aβ1-40 secreted to the medium was measured with an ELISA-based commercial kit (Human Amyloid β-40 ELISA High Sensitivity Kit, Millipore, Billerica, Mass., USA) using absorbance at 450 nm as the final readout. In the culture plate several wells were included as a control for lack of Aβ1-40 secretion, in these wells the cells were incubated in the presence of 16% (v/v) DMSO to inhibit cell growth therefore abolishing Aβ1-40 secretion. Likewise, several wells were also included as a control for full Aβ1-40 secretion, in these wells the cells were grown in the presence of 1% (v/v) DMSO. The absorbance of each tested sample was normalized to that of the control wells, so that for every compound concentration the percentage of inhibition was calculated with the following equation:
[formula] where “S” is the absorbance of the sample being considered, “E” is the average absorbance of wells lacking Aβ1-40 secretion and “B” is the average absorbance of wells with full Aβ1-40 secretion. The inhibition values obtained at every compound concentration were fitted to a 4-parameters isotherm equation, as described above, to calculate the […] (i.e., the concentration causing 50% of inhibition of Ab1-40 secretion).

In the case of COc1cc(CNS(=O)(=O)c2ccc(Cl)s2)nc(-c2ccccn2)c1 [Compound 2, 5-Chloro-thiophene-2-sulfonic acid (4-methoxy-[2,2′]bipyridinyl-6-ylmethyl)-amide], the EC50 [1] is reported as 800 nM, the EC50 [2] is reported as 500 to 11000 nM and the Emax [2] is reported as 250 to 500%. For the same compound, the “rank of maximum effect among compounds tested (sAPPα secretion)” value ([2]; comparison among tested compounds) was “maximum effect was obtained” and the IC50 [3] was 300 to 42000 nM.

Work on COc1cc(CNS(=O)(=O)c2cc(F)cc(F)c2)nc(-c2ccccn2)c1 [Compound 10] yielded an EC50 [1] of 1170 nM, an EC50 [2] of 500 to 11000 nM and an Emax [2] of 250 to 500%. The IC50 [3] was 300 to 42000 nM.

COc1cc(CNS(=O)(=O)c2cccc(F)c2)nc(-c2ccccn2)c1 [Compound 12, 3-Fluoro-N-(4-methoxy-[2,2′]bipyridinyl-6-ylmethyl)-benzenesulfonamide] was tested, and the EC50 [1] was 1060 nM, the EC50 [2] was 500 to 11000 nM and the Emax [2] was 250 to 500%.

For COc1cc(CNS(=O)(=O)c2ccc(C#N)cc2)nc(-c2ccccn2)c1 [Compound 13, 4-Cyano-N-(4-methoxy-[2,2′]bipyridinyl-6-ylmethyl)-benzenesulfonamide], the EC50 [1] was 1500 nM, the EC50 [2] was 500 to 11000 nM and the Emax [2] was 250 to 500%.

Work on COc1cc(CNS(=O)(=O)c2ccc(F)c(C#N)c2)nc(-c2ccccn2)c1 [Compound 14, 3-Cyano-4-fluoro-N-(4-methoxy-[2,2′]bipyridinyl-6-ylmethyl)-benzenesulfonamide] yielded an EC50 [1] of 1600 nM, an EC50 [2] of 500 to 11000 nM and an Emax [2] of 250 to 500%.

Work on COc1cc(CNS(=O)(=O)c2ccc(Br)cc2)nc(-c2ccccn2)c1 [Compound 16, 4-Bromo-N-(4-methoxy-[2,2′]bipyridinyl-6-ylmethyl)-benzenesulfonamide] yielded an EC50 [1] of 3200 nM, an EC50 [2] of 500 to 11000 nM and an Emax [2] of 250 to 500%.

In the case of COc1cc(CNS(=O)(=O)c2ccc(Br)s2)nc(-c2ccccn2)c1 [Compound 18, 5-Bromo-thiophene-2-sulfonic acid (4-methoxy-[2,2′]bipyridinyl-6-ylmethyl)-amide], the EC50 [1] is reported as 1880 nM, the EC50 [2] is reported as 500 to 11000 nM and the Emax [2] is reported as 250 to 500%.

Compound COc1cc(CNS(=O)(=O)c2cc(Cl)sc2Cl)nc(-c2ccccn2)c1 [Compound 19, 2,5-Dichloro-thiophene-3-sulfonic acid (4-methoxy-[2,2′]bipyridinyl-6-ylmethyl)-amide] has an EC50 [1] of 1300 nM, an EC50 [2] of 500 to 11000 nM and an Emax [2] of 250 to 500%. For the same compound, the IC50 [3] was 300 to 42000 nM.

Work on CCN(CC)CCOc1cc(CNS(=O)(=O)c2cccs2)nc(-c2ccccn2)c1 [Compound 28, Thiophene-2-sulfonic acid [4-(2-diethylamino-ethoxy)-[2,2′]bipyridinyl-6-ylmethyl]-amide] yielded an EC50 [1] of 1160 nM, an EC50 [2] of 500 to 11000 nM and an Emax [2] of 250 to 500%.

Compound CCN(CC)CCOc1cc(CNS(=O)(=O)c2ccc(Cl)s2)nc(-c2ccccn2)c1 [Compound 30, 5-Chloro-thiophene-2-sulfonic acid [4-(2-diethylamino-ethoxy)-[2,2′]bipyridinyl-6-ylmethyl]-amide] has an EC50 [1] of 290 nM, an EC50 [2] of 500 to 11000 nM and an Emax [2] of 250 to 500%. For the same compound, the IC50 [3] was 300 to 42000 nM.

CCN(CC)CCOc1cc(CNS(=O)(=O)c2ccc(C)s2)nc(-c2ccccn2)c1 [Compound 32, 5-Methyl-thiophene-2-sulfonic acid [4-(2-diethylamino-ethoxy)-[2,2′]bipyridinyl-6-ylmethyl]-amide] was tested, and the EC50 [1] was 550 nM, the EC50 [2] was 500 to 11000 nM and the Emax [2] was 250 to 500%.

CS(=O)(=O)c1cc(CNS(=O)(=O)c2ccc(Cl)s2)nc(-c2ccccn2)c1 [Compound 33, 5-Chloro-thiophene-2-sulfonic acid (4-methanesulfonyl-[2,2′]bipyridinyl-6-ylmethyl)-amide] gave an EC50 [1] of 1020 nM, an EC50 [2] of 500 to 11000 nM and an Emax [2] of 250 to 500%. The IC50 [3] was 300 to 42000 nM.
